# Where two headings read alike, the source gives them in different places. Marks after values point to notes of the source that are not given here.
# Experiments:
# [1] = biological target: T1, alpha-glucosidase (Saccharomyces cerevisiae, UniProt P53341); assay: enzyme kinetic study (Lineweaver-Burk and secondary plots); type: biochemical; settings: for inhibition type: Lineweaver-Burk plot; for Ki′: inhibition constant when inhibitor bound with enzyme-substrate complex, secondary plot
# Method: The double reciprocal Lineweaver–Burk plot was used to determine the mode of inhibition, while the secondary plots conducted the inhibition constants. […] Briefly, the enzyme inhibition procedure was performed as mention above. The 6 concentrations of pNPG (5–0.1 mM), the fixed enzyme concentration (1 unit/mL), and the 3 concentrations of each effective sample were evaluated for the manner of inhibition.
# [2] = biological target: T1, alpha-glucosidase; settings: cited from earlier work; for IC50: ref 13
# [3] = system: alpha-amylase; set-up: method as in PMID 31185767; settings: ref 15; cited from earlier work
# T1 sequence (P53341 whole entry): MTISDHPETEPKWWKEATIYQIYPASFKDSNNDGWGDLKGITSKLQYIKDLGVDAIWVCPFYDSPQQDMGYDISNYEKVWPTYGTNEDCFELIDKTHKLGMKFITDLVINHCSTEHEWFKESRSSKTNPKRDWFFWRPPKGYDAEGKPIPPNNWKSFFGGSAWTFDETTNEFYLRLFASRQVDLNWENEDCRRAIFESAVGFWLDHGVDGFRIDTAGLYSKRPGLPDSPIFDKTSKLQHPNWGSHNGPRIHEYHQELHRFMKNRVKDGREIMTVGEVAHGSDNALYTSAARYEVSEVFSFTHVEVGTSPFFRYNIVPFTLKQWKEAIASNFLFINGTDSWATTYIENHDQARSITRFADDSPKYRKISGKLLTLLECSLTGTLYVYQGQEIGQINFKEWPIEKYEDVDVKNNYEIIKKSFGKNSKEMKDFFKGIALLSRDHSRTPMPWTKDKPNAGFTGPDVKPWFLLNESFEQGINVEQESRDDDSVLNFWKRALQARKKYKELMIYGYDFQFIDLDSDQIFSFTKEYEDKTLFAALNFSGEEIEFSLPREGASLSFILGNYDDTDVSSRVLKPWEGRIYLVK
Compound,inhibition type [1],"inhibition type ([2]; ref 11, 13)",inhibition type ([2]; ref 12),IC50 [2],Ki′ [1],other results
"C[C@H]1O[C@H](O[C@H]2[C@H](O)[C@@H](O)[C@@H](O[C@H]3[C@H](O)[C@@H](O)C(O)O[C@@H]3CO)O[C@@H]2CO)[C@H](O)[C@@H](O)[C@@H]1N[C@H]1C=C(CO)[C@@H](O)[C@H](O)[C@H]1O (stereo partly drawn) [Acarbose, acarbose, reference compound]",Competitive,–,–,–,–,–
"COc1cc2ccc(=O)oc2cc1O [Compound 1, scopoletin]",mixed-type,–,–,–,–,inhibition type ([2]; ref 20): competitive; inhibition type ([1]; listed as Scopoletin (1)): Mixed; alpha-amylase inhibitory activity [3]: potent inhibitory activity
"COc1cc(C(=O)O)cc(OC)c1O [Compound 2, syringic acid]",–,–,–,–,–,inhibition type ([2]; ref 9): either in a competitive or an uncompetitive manner
"COc1cc(/C=C/C(=O)NCCc2ccc(O)cc2)ccc1O [Compound 4, N-trans-feruloyltyramine]",Uncompetitive,uncompetitive,non-competitive,3580 nM,51.81 µM,Ki′ ([1]; listed as N-trans-feruloyltyramine (4)): 51.81 ^c µM
"O=C(/C=C/c1ccc(O)cc1)NCCc1ccc(O)cc1 [Compound 5, N-trans-coumaroyltyramine]",Uncompetitive,uncompetitive,non-competitive,580 nM,1.99 µM,Ki′ ([1]; listed as N-trans-coumaroyltyramine (5)): 1.99 ^c µM

# Reference: publication PMC8839375, “Alpha-Glucosidase Inhibition and Molecular Docking of Isolated Compounds from Traditional Thai Medicinal Plant, Neuropeltis racemosa Wall” (Molecules, 2022)
